According to patent publication US8519124B2, “Chemokine receptor antagonists and use thereof” (Ono Pharmaceutical Co., Ltd., priority 2005, dated 2013):

Legend:
[1] = system: CHL/IU (cell line derived from a Chinese hamster lung); experiment: Phospholipidosis detecting system using fluorescent labeling phospholipid analog (NBD-PE); format: cell-based; conditions: compound dose: 50 μM; for The rate of increase of phopholipid accumulation (%): CHL/IU cells, about 24 hours, relative to NBD-PE control
Description: Investigation with a Phospholipidosis Detecting System Using Fluorescent Labeling Phospholipidosis Analog (i) Phospholipid Accumulation Measurement 100 μL/well as required (1 dose 2 wells) of cell suspension of CHL/IU (cell line derived from a Chinese hamster lung) adjusted by MEM (7×10^4 cells/mL) adjusted by MEM (minimum essential medium) culture medium was added to a 96-well plate (96-well clear-bottom plate), and cultured for about 24 hours. After culture, the supernatant of the 96-well plate was removed, and the 100 μL/well compounds of each concentration dissolved and suspended in a minimum essential medium (MEM) including 25 μmol/L nitrobenzoxadiazole dipalmitoyl phosphatidylethanolamine (NBD-PE) (hereinafter abbreviated as a NPD-PE medium) were added and treated for about 24 hours. The treatment concentrations of each compound were set to be 6.25, 12.5, 25, 50 and 100 μmol/L. The positive control substance was set to be amiodarone hydrochloride, and the treatment concentrations were set to be 1.25, 2.5, 5, 10 and 20 μmol/L. In addition, 5 untreated controls (only MEM) and 5 NBD-PE controls (made by means of adding a 1/100 amount of DMSO to the NBD-PE culture medium) were set per compound, and cultured in the same manner. After finishing the culture, the cultures were washed twice with Phosphate buffered saline (hereinafter abbreviated as PBS) (−) 100 μL/well, and the MEM (100 μL) was added to all of the treatment wells including 2 empty wells for WST-1 background controls and cultured for about a half hour. The fluorescence intensities of each well were measured by using a microplate reader (manufactured by Molecular Devices Inc., SPECTRA max M2; the excitation wavelength 485 nm/the fluorescence wavelength 535 nm). (ii) Analysis Using the average values of each dose×2 wells, a phospholipid increase rate (%) to the NBD-PE control was calculated by using the following calculating formula: Phospholipid increase rate (%)=100×{(test article fluorescence intensity−untreated control fluorescence intensity)/(NBD-PE control fluorescence intensity−untreated control fluorescence intensity (iii) Cytotoxicity Assay The 96-well plate measured in the phospholipid accumulation measurement was measured by means of Plate Reader (manufactured by Molecular Devices Inc., SPECTRA max M2) with the main wavelength of 450 nm and the correct wavelength of 690 nm to calculate a Pre value. An amount of 5 μL/well of Premix WS T-1 was added to each of the 96 hole plates by which Pre measurement was conducted. After culture for 2 to 4 hours, the 96-well plate was measured as well as the Pre measurement to calculate an Aft value. Then, the background control value was subtracted from the each measured value. A value which was calculated by subtracting the Pre value from the Aft value was used, then the cell growth rate (%) was calculated by using the following calculating formula: Cell growth rate (%)=100×{(test article OD)/(NBD-PE control OD)} (iv) Determination A test dose that indicated value of equal to or more than 25% of the maximum phospholipid accumulation increase rate of amiodarone which was the positive control was determined as positive. In addition, the dose whose cell growth rate was equal to or less than 50% in the cytotoxicity assay was not used for determination of existence or nonexistence of a phospholipidosis inductive effect.

CXCR4 = biological target: T1, CXCR4 (Homo sapiens, UniProt P61073); experiment: Study for inhibition of binding human SDF-1 to CEM cells (125I-SDF-1); conditions: 125I-SDF-1 binding to CEM cells
T1 construct: a human T cell strain in which CXCR4 is known to be expressed; endogenous in cells; host or cells: CEM cells (human T cell strain)
T1 sequence (P61073 whole entry): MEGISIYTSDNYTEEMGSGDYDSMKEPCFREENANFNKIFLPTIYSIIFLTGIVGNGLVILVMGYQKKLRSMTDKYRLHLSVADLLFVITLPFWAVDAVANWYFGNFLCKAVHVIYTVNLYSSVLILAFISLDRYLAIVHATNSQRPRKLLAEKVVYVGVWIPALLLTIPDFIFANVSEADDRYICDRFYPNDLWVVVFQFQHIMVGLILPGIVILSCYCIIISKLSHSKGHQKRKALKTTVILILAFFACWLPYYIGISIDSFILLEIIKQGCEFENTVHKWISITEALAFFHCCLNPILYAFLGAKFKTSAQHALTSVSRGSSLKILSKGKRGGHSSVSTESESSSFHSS
Text: Specifically, as a system of screening a compound that inhibits the binding between SDF-1 and CXCR4, for example a system of measuring the binding between iodine-labeled SDF-1 and a human T cell strain in which CXCR4 is known to be expressed is operable. The identical idea is possible since macrophage (R5) HIV and RANTES, MIP-1α, and MIP-1β all bind to CCR5.
Study for Inhibition of Binding Human SDF-1 to CEM Cells
To human T cell strain CEM cells in a binding buffer (containing HEPES and BSA), the test compound and ^125I-SDF-1 (NEN) were added and the mixture was incubated at 4° C. for 60 minutes. The reacted CEM cells were rapidly filtrated with a GF/B membrane filter plate (Packard) to adsorb. The plate was washed with PBS three times and then dried. Microscint+20 (Packard) was added thereto. An amount of the radioactivity bound to the CEM cells was measured using Top Count (Packard) and inhibition (%) of the test compound was calculated according to the following equation: Inhibition={(Et−Ea)/(Et−Ec)}×100
Et: amount of radioactivity when the test compound is not added,
Ec: amount of radioactivity when non-radioactive SDF-1 (Pepro Tech) is added in an amount of 1000 times as much as ^125I-SDF-1 as a test compound, and
Ea: amount of radioactivity when the test compound is added.

Row | SMILES | Judgement (phospholipidosis inductive effect) [1] | The rate of increase of phopholipid accumulation (%) [1] | IC50 (CXCR4)
1 | CC(C)CN1CCC2(CCN(Cc3ccc(C(=O)N(Cc4ncc[nH]4)Cc4ncc[nH]4)cc3)CC2)C1 [Example 8 (113), N,N-bis(1H-imidazol-2-ylmethyl)-4-[(2-isobutyl-2,8-diazaspiro[4.5]dec-8-yl)methyl]benzamide] | negative | 10% | 15 nM
2 | CC(C)(C)CN1CCC2(CC1)CCN(C(=O)Cc1ccc(CN(Cc3ncc[nH]3)Cc3ncc[nH]3)cc1)C2 [Example 40 (68), 1-(4-{2-[8-(2,2-dimethylpropyl)-2,8-diazaspiro[4.5]dec-2-yl]-2-oxoethyl}phenyl)-N,N-bis(1H-imidazol-2-ylmethyl)methanamine] | negative | 18% | 
3 | CCC(CC)N1CCC2(CCN(C(=O)c3ccc(CN(Cc4ncc[nH]4)Cc4nccn4C)cc3)C2)CC1 [Example 40 (72), 1-(4-{[8-(1-ethylpropyl)-2,8-diazaspiro[4.5]dec-2-yl]carbonyl}phenyl)-N-(1H-imidazol-2-ylmethyl)-N-[(1-methyl-1H-imidazol-2-yl)methyl]methanamine] | negative | 16% | 
4 | O=C(CC(=O)N1CCC2(CCN(C3CCCCC3)CC2)C1)N1CCC(N(Cc2ncc[nH]2)Cc2ncc[nH]2)CC1 [Example 65 (4), 1-[3-(8-cyclohexyl-2,8-diazaspiro[4.5]dec-2-yl)-3-oxopropanoyl]-N,N-bis(1H-imidazol-2-ylmethyl)-4-piperidinamine] | negative | 12% | 
